Starred links: 1 amine or outer side, 2 acyl side, 3 side chain; linkers in the order of their positions; H or OH if unused. Non-standard residues stand in square brackets, D forms with d. Residues, ends and D or L forms follow the SMILES beside them. Groups on a side chain read outwards from the residue. *: point of attachment. C18 diacid = O=C(O)CCCCCCCCCCCCCCCCC(=O)*; γGlu = O=C(O)[C@H](CCC(=O)[*:2])N[*:1]; αMeF = C[C@](N)(Cc1ccccc1)C(=O)O; AEEA = NCCOCCOCC(=O)O; Aib = CC(C)(N)C(=O)O
What was measured:
[1] = biological target: human GLP-1 receptor (hGLP-1R) (Homo sapiens, UniProt P43220); experiment: cAMP production (HTRF) in CHO cells expressing hGLP-1R; type: cell-based; parameters: expressed in transfected cells; details: for EC50: Table 6, peptides modified at position 17, cAMP in CHO hGLP-1R cells, geometric mean, read-out: hGLP-1R EC50; for % Relative Potency Ratio: Table 6, % GLP-1R activity relative to GLP-1 / % GlucR activity relative to glucagon
How it was run: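 Read-out: HTRF cAMP (anti-cAMP cryptate donor, cAMP-d2 acceptor in conjugate/lysis buffer), converted to % Delta F and fitted by 4-parameter logistic for EC50. Cell densities were 1×10^5 cells/mL (hGLP-1R) or 2×10^5 cells/mL (hGCGR). Stimulation lasted 30 min at room temperature.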

[2] = biological target: human glucagon receptor (hGCGR) (Homo sapiens, UniProt P47871); experiment: cAMP production (HTRF) in CHO cells expressing hGCGR; type: cell-based; parameters: expressed in transfected cells; details: Table 6, peptides modified at position 17; cAMP in CHO hGCGR cells; geometric mean; read-out: hGluc-R EC50
Experimental: Cells were re-suspended in assay buffer at a batch-dependent optimized concentration (typically hGLP-1R cells at 1×10^5 cells/mL, hGCGR cells at 2×10^5 cells/mL).
Cells were added to the assay plate using a multidrop dispenser and incubated at room temperature for 30 minutes before measuring the cAMP level using a cAMP dynamic 2 homogeneous time resolved Fluorescence (HTRF) kit (Cisbio Bioassays #62AM4PEJ) following the two-step protocol as per manufacturer's recommendations. In brief, anti-cAMP cryptate (donor fluorophore) and cAMP-d2 (acceptor fluorophore) were made up separately by diluting each 1 in 20 in conjugate and lysis buffer provided in the kit. Anti-CAMP cryptate was added to all wells of the assay plate, followed by cAMP-d2 added to all wells except non-specific binding (NSB) wells (to which conjugate and lysis buffer was added).
Data was transformed to % Delta F as described in the manufacturer's guidelines and analyzed by 4-parameter logistic fit to determine EC50 values.

Sequence of human GLP-1 receptor (hGLP-1R) (P43220 24-463): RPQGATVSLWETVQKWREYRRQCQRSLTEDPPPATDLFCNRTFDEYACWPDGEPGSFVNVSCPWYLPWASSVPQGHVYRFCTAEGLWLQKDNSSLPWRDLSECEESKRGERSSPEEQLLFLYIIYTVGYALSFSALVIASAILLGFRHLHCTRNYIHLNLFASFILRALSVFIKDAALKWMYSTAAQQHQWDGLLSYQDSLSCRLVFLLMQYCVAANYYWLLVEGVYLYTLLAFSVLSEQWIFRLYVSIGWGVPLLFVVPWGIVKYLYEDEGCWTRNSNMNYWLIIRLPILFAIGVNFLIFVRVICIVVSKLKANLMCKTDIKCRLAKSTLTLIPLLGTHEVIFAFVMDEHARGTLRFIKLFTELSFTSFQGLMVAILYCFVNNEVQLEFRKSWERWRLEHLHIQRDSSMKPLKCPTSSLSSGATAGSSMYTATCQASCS
Sequence of human glucagon receptor (hGCGR) (P47871 26-477): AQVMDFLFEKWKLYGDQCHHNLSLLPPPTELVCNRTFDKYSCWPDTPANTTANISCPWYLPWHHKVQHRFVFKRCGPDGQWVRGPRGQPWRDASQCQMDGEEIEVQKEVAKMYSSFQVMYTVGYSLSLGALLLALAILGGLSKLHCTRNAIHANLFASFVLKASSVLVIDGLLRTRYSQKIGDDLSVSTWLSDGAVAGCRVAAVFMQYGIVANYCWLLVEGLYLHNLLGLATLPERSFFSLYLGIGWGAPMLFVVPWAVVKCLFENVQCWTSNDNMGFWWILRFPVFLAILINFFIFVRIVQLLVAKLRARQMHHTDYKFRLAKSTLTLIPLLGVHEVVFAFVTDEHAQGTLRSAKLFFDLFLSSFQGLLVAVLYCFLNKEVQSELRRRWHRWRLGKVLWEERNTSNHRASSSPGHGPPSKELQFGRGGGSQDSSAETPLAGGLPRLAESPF

EC50 [1] [nM] | % Relative Potency Ratio [1] | EC50 [2] [nM] | SMILES
0.069 | 4.3 | 0.149 | CC[C@H](C)[C@H](NC(=O)[C@H](Cc1c[nH]c2ccccc12)NC(=O)[C@H](CCC(N)=O)NC(=O)[C@@H](NC(=O)[C@H](Cc1ccccc1)NC(=O)[C@H](CC(=O)O)NC(=O)[C@H](CCC(N)=O)NC(=O)[C@H](C)NC(=O)[C@H](C)NC(=O)[C@H](CCCCNC(=O)CC[C@H](NC(=O)CCCCCCCCCCCCCCCCC(=O)O)C(=O)O)NC(=O)[C@H](CO)NC(=O)[C@H](CC(=O)O)NC(=O)[C@H](CC(C)C)NC(=O)[C@](C)(Cc1ccccc1)NC(=O)[C@H](CCCCN)NC(=O)[C@H](CO)NC(=O)[C@@H](NC(=O)[C@H](CC(=O)O)NC(=O)[C@H](CO)NC(=O)[C@@H](NC(=O)[C@](C)(Cc1ccccc1)NC(=O)[C@H](CO)NC(=O)CNC(=O)[C@H](CCC(N)=O)NC(=O)[C@H](CO)NC(=O)[C@@H](N)Cc1c[nH]cn1)[C@@H](C)O)C(C)C)C(C)C)C(=O)N[C@@H](C)C(=O)N[C@@H](CC(N)=O)C(=O)N[C@H](C(N)=O)[C@@H](C)O [Peptide 3] (H-HSQGS[αMeF]TSDVSK[αMeF]LDSK([γGlu-C18 diacid])AAQDFVQWIANT-NH2; N-terminus assumed)
0.24 | 9.6 | 1.17 | CC[C@H](C)[C@H](NC(=O)[C@H](Cc1c[nH]c2ccccc12)NC(=O)[C@H](CCC(N)=O)NC(=O)[C@@H](NC(=O)[C@H](Cc1ccccc1)NC(=O)[C@H](CC(=O)O)NC(=O)[C@H](CCC(N)=O)NC(=O)[C@H](C)NC(=O)[C@H](C)NC(=O)[C@H](CCCCNC(=O)COCCOCCNC(=O)COCCOCCNC(=O)CC[C@H](NC(=O)CCCCCCCCCCCCCCCCC(=O)O)C(=O)O)NC(=O)[C@H](CO)NC(=O)[C@H](CC(=O)O)NC(=O)[C@H](CC(C)C)NC(=O)[C@](C)(Cc1ccccc1)NC(=O)[C@H](CCCCN)NC(=O)[C@H](CO)NC(=O)[C@@H](NC(=O)[C@H](CC(=O)O)NC(=O)[C@H](CO)NC(=O)[C@@H](NC(=O)[C@](C)(Cc1ccccc1)NC(=O)[C@H](CO)NC(=O)CNC(=O)[C@H](CCC(N)=O)NC(=O)[C@H](CO)NC(=O)[C@@H](N)Cc1c[nH]cn1)[C@@H](C)O)C(C)C)C(C)C)C(=O)N[C@@H](C)C(=O)N[C@@H](CC(N)=O)C(=O)N[C@H](C(N)=O)[C@@H](C)O [Peptide 4] (H-HSQGS[αMeF]TSDVSK[αMeF]LDSK([AEEA-AEEA-γGlu-C18 diacid])AAQDFVQWIANT-NH2)
0.283 | 49.9 | 7.14 | CC[C@H](C)[C@H](NC(=O)C(C)(C)NC(=O)[C@H](CCC(N)=O)NC(=O)[C@@H](NC(=O)[C@](C)(Cc1ccccc1)NC(=O)[C@H](CC(=O)O)NC(=O)[C@H](CCC(N)=O)NC(=O)[C@H](C)NC(=O)[C@H](C)NC(=O)[C@H](CCCCNC(=O)COCCOCCNC(=O)COCCOCCNC(=O)CC[C@H](NC(=O)CC[C@H](NC(=O)CCCCCCCCCCCCCCCCC(=O)O)C(=O)O)C(=O)O)NC(=O)[C@H](CO)NC(=O)[C@H](CC(=O)O)NC(=O)[C@H](CC(C)C)NC(=O)[C@](C)(Cc1ccccc1)NC(=O)[C@H](CCCCN)NC(=O)[C@H](CO)NC(=O)[C@@H](NC(=O)[C@H](CC(=O)O)NC(=O)[C@H](CO)NC(=O)[C@@H](NC(=O)[C@](C)(Cc1ccccc1)NC(=O)[C@H](CO)NC(=O)CNC(=O)[C@H](CCC(N)=O)NC(=O)C(C)(C)NC(=O)[C@@H](N)Cc1c[nH]cn1)[C@@H](C)O)C(C)C)C(C)C)C(=O)N[C@@H](C)C(=O)N[C@@H](CC(N)=O)C(N)=O [Peptide 5] (H-H[Aib]QGS[αMeF]TSDVSK[αMeF]LDSK([AEEA-AEEA-γGlu-γGlu-C18 diacid])AAQD[αMeF]VQ[Aib]IAN-NH2; N-terminus assumed)
0.568 | 1.8 | 0.516 | CC[C@H](C)[C@H](NC(=O)[C@H](Cc1c[nH]c2ccccc12)NC(=O)[C@H](CCC(=O)O)NC(=O)[C@@H](NC(=O)[C@](C)(Cc1ccccc1)NC(=O)[C@H](CC(=O)O)NC(=O)[C@H](CCC(N)=O)NC(=O)[C@H](C)NC(=O)[C@H](C)NC(=O)[C@H](CCCCNC(=O)COCCOCCNC(=O)COCCOCCNC(=O)CC[C@H](NC(=O)CCCCCCCCCCCCCCCCC(=O)O)C(=O)O)NC(=O)[C@H](CO)NC(=O)[C@H](CC(=O)O)NC(=O)[C@H](CC(C)C)NC(=O)[C@](C)(Cc1ccccc1)NC(=O)[C@H](CCCCN)NC(=O)[C@H](CO)NC(=O)[C@@H](NC(=O)[C@H](CC(=O)O)NC(=O)[C@H](CO)NC(=O)[C@@H](NC(=O)[C@](C)(Cc1ccccc1)NC(=O)[C@H](CO)NC(=O)CNC(=O)[C@H](Cc1c[nH]cn1)NC(=O)C(C)(C)NC(=O)[C@@H](N)Cc1c[nH]cn1)[C@@H](C)O)C(C)C)C(C)C)C(=O)N[C@@H](C)C(=O)N[C@@H](CC(N)=O)C(N)=O [Peptide 6] (H-H[Aib]HGS[αMeF]TSDVSK[αMeF]LDSK([AEEA-AEEA-γGlu-C18 diacid])AAQD[αMeF]VEWIAN-NH2; N-terminus assumed)
0.0878 | 1.2 | 0.0536 | CC[C@H](C)[C@H](NC(=O)[C@H](Cc1c[nH]c2ccccc12)NC(=O)[C@H](CCC(N)=O)NC(=O)[C@@H](NC(=O)[C@H](Cc1ccccc1)NC(=O)[C@H](CC(=O)O)NC(=O)[C@H](CCC(N)=O)NC(=O)[C@H](C)NC(=O)[C@H](C)NC(=O)[C@H](CCCCNC(=O)COCCOCCNC(=O)COCCOCCNC(=O)CC[C@H](NC(=O)CCCCCCCCCCCCCCCCC(=O)O)C(=O)O)NC(=O)[C@H](CO)NC(=O)[C@H](CC(=O)O)NC(=O)[C@H](CC(C)C)NC(=O)[C@](C)(Cc1ccccc1)NC(=O)[C@H](CCCCN)NC(=O)[C@H](CO)NC(=O)[C@@H](NC(=O)[C@H](CC(=O)O)NC(=O)[C@H](CO)NC(=O)[C@@H](NC(=O)[C@](C)(Cc1ccccc1)NC(=O)[C@H](CO)NC(=O)CNC(=O)[C@H](Cc1c[nH]cn1)NC(=O)C(C)(C)NC(=O)[C@@H](N)Cc1c[nH]cn1)[C@@H](C)O)C(C)C)C(C)C)C(=O)N[C@@H](C)C(=O)N[C@@H](CC(N)=O)C(=O)N[C@H](C(N)=O)[C@@H](C)O [Peptide 8] (H-H[Aib]HGS[αMeF]TSDVSK[αMeF]LDSK([AEEA-AEEA-γGlu-C18 diacid])AAQDFVQWIANT-NH2; N-terminus assumed)
0.242 | 2.3 | 0.279 | CC[C@H](C)[C@H](NC(=O)[C@H](Cc1c[nH]c2ccccc12)NC(=O)[C@H](CCC(N)=O)NC(=O)[C@@H](NC(=O)[C@H](Cc1ccccc1)NC(=O)[C@H](CC(=O)O)NC(=O)[C@H](CCCNC(=N)N)NC(=O)[C@H](C)NC(=O)[C@H](C)NC(=O)[C@H](CCCCNC(=O)COCCOCCNC(=O)COCCOCCNC(=O)CC[C@H](NC(=O)CCCCCCCCCCCCCCCCC(=O)O)C(=O)O)NC(=O)[C@H](CO)NC(=O)[C@H](CC(=O)O)NC(=O)[C@H](CC(C)C)NC(=O)[C@](C)(Cc1ccccc1)NC(=O)[C@H](CCCCN)NC(=O)[C@H](CO)NC(=O)[C@@H](NC(=O)[C@H](CC(=O)O)NC(=O)[C@H](CO)NC(=O)[C@@H](NC(=O)[C@](C)(Cc1ccccc1)NC(=O)[C@H](CO)NC(=O)CNC(=O)[C@H](Cc1c[nH]cn1)NC(=O)C(C)(C)NC(=O)[C@@H](N)Cc1c[nH]cn1)[C@@H](C)O)C(C)C)C(C)C)C(=O)N[C@@H](C)C(=O)N[C@@H](CC(N)=O)C(=O)N[C@H](C(N)=O)[C@@H](C)O [Peptide 9] (H-H[Aib]HGS[αMeF]TSDVSK[αMeF]LDSK([AEEA-AEEA-γGlu-C18 diacid])AARDFVQWIANT-NH2; N-terminus assumed)
0.658 | 1.1 | 0.377 | CC[C@H](C)[C@H](NC(=O)[C@H](Cc1c[nH]c2ccccc12)NC(=O)[C@H](CCC(=O)O)NC(=O)[C@@H](NC(=O)[C@H](Cc1ccccc1)NC(=O)[C@H](CC(=O)O)NC(=O)[C@H](CCCNC(=N)N)NC(=O)[C@H](C)NC(=O)[C@H](C)NC(=O)[C@H](CCCCNC(=O)COCCOCCNC(=O)COCCOCCNC(=O)CC[C@H](NC(=O)CCCCCCCCCCCCCCCCC(=O)O)C(=O)O)NC(=O)[C@H](CO)NC(=O)[C@H](CC(=O)O)NC(=O)[C@H](CC(C)C)NC(=O)[C@](C)(Cc1ccccc1)NC(=O)[C@H](CCCCN)NC(=O)[C@H](CO)NC(=O)[C@@H](NC(=O)[C@H](CC(=O)O)NC(=O)[C@H](CO)NC(=O)[C@@H](NC(=O)[C@](C)(Cc1ccccc1)NC(=O)[C@H](CO)NC(=O)CNC(=O)[C@H](Cc1c[nH]cn1)NC(=O)C(C)(C)NC(=O)[C@@H](N)Cc1c[nH]cn1)[C@@H](C)O)C(C)C)C(C)C)C(=O)N[C@@H](C)C(=O)N[C@@H](CC(N)=O)C(=O)N[C@H](C(N)=O)[C@@H](C)O [Peptide 10] (H-H[Aib]HGS[αMeF]TSDVSK[αMeF]LDSK([AEEA-AEEA-γGlu-C18 diacid])AARDFVEWIANT-NH2; N-terminus assumed)
